# Source: patent US20190307843A1, “SINGLE DOSE METHODS FOR PREVENTING AND TREATING FUNGAL INFECTIONS” (Cidara Therapeutics, Inc., priority 2016, published 2019)
# Like-named read-outs stand apart in the source and are kept apart here. Starred links: 1 amine or outer side, 2 acyl side, 3 side chain; linkers in the order of their positions; H or OH if unused. Positions of bridges follow the written chain, without caps; N, C: chain ends. Non-standard residues stand in square brackets, D forms with d. Residues, ends and D or L forms follow the SMILES beside them. *: point of attachment. hTyr(3S-OH,4S-OH,3'-OSO3H) = N[C@H](C(=O)O)[C@H](O)[C@@H](O)c1ccc(O)c(OS(=O)(=O)O)c1; Orn(4R-OH,5R-OH) = O=C([C@H](C[C@@H](O)[C@@H](O)N[*:3])N[*:1])[*:2]; Pro(3S-OH,4S-Me) = C[C@H]1CN[C@H](C(=O)O)[C@H]1O; X1 = CCCCCOc1ccc(-c2cc(-c3ccc(C(=O)*)cc3)no2)cc1; Gln(3R-OH) = NC(=O)C[C@@H](O)[C@H](N)C(=O)O; Hyp = O=C(O)[C@@H]1C[C@@H](O)CN1
# How the values were obtained:
# [1] = tested on: A. fumigatus AF293; assay: Murine model of pulmonary aspergillosis (Example 19), terminal lung burden; type: in vivo, Aspergillus fumigatus; settings: Micafungin 5 mg/kg IP Day −1
# Protocol: A secondary endpoint for the study was terminal lung tissue burden. Immediately following confirmation of death, carcasses were frozen at −20° C. prior to tissue dissection and processing. The frozen carcasses were thawed at room temperature, the lungs removed and placed into pre-weighed bead-beating tubes containing 2 mL of PBS and subjected to mechanical disruption. Organ homogenates were diluted further in PBS and quantitatively cultured for A. fumigatus onto SABC and incubated at 30° C. for 24-48 hours.
# 2. Lung tissue burden data were analysed using the non-parametric Kruskal-Wallis test and if this was statistically significant all pairwise comparisons were analyzed (Conover-Inman).
# [2] = tested on: Candida auris strains; assay: Candida auris antifungal susceptibility testing (CLSI M27-A3), 38 strains; type: cell-based; settings: for MIC: Candidozyma auris, read-out: MIC
# [3] = tested on: A. fumigatus AF293; assay: Pulmonary aspergillosis, prophylaxis, neutropenic ICR mice (Examples 17, 18), survival; type: in vivo, Aspergillus fumigatus; settings: micafungin 5 mg/kg
# Protocol: Intranasal infection with A. fumigatus AF293 (10^5 CFU/mouse) on Day 0. Prophylaxis CD101 as a single dose (IP; 5, 10, 20 mg/kg) or posaconazole (PO; 2 and 10 mg/kg) 1 day prior to infection. Survival monitored for 10 days.
# Intranasal challenge with A. fumigatus AF293 (10^5 CFU/mouse) was initiated on Day 0 and prophylaxis with CD101 as a single dose (IP; 5, 10, 20 mg/kg) or posaconazole (PO; 2 and 10 mg/kg) was started 1 day prior to infection. Survival was monitored for 10 days.
compound,measurement,setting,value
"CCCCCOc1ccc(-c2cc(-c3ccc(C(=O)N[C@H]4C[C@@H](O)[C@@H](O)NC(=O)[C@@H]5[C@@H](O)[C@@H](C)CN5C(=O)[C@H]([C@H](O)CC(N)=O)NC(=O)[C@H]([C@H](O)[C@@H](O)c5ccc(O)c(OS(=O)(=O)O)c5)NC(=O)[C@@H]5C[C@@H](O)CN5C(=O)[C@H]([C@@H](C)O)NC4=O)cc3)no2)cc1 [Micafungin, micafungin] (X1-[Orn(4R-OH,5R-OH)]T[Hyp][hTyr(3S-OH,4S-OH,3'-OSO3H)][Gln(3R-OH)][Pro(3S-OH,4S-Me)]; lactam 1-C)",Group Geometric mean (lung burden),[1],6.61 × 10^3 CFU/g
same,Log10 Group Geometric mean (lung burden),[1],3.82 CFU/g
same,Log10 reduction from vehicle control,[1],0.35 CFU/g
same,number of resistant isolates,[2],4
same,MIC,"[2]; 24 h, strain 1 VPCI 669/P/12, 24 h",0.125 µg/mL
same,MIC,"[2]; 24 h, strain 2 VCPI 671/P/12, 24 h",0.125 µg/mL
same,MIC,"[2]; 24 h, strain 3 VCPI 674/P/12, 24 h",0.06 µg/mL
same,MIC,"[2]; 24 h, strain 4 VCPI 683/P/12, 24 h",0.125 µg/mL
same,MIC,"[2]; 24 h, strain 5 VCPI 692/P/12, 24 h",0.125 µg/mL
same,MIC,"[2]; 24 h, strain 6 VCPI 712/P/12, 24 h",0.125 µg/mL
same,MIC,"[2]; 24 h, strain 7 VCPI 471/P/13, 24 h",0.25 µg/mL
same,MIC,"[2]; 24 h, strain 8 VCPI 475/P/13, 24 h",0.125 µg/mL
same,MIC,"[2]; 24 h, strain 9 VCPI 478/P/13, 24 h",0.125 µg/mL
same,MIC,"[2]; 24 h, strain 10 VCPI 479/P/13, 24 h",0.125 µg/mL
same,MIC,"[2]; 24 h, strain 11 VCPI 480/P/13, 24 h",0.125 µg/mL
same,MIC,"[2]; 24 h, strain 12 VCPI 482/P/13, 24 h",0.125 µg/mL
same,MIC,"[2]; 24 h, strain 13 VCPI 483/P/13, 24 h",0.125 µg/mL
same,MIC,"[2]; 24 h, strain 14 VCPI 1130/P/13, 24 h",0.125 µg/mL
same,MIC,"[2]; 24 h, strain 15 VCPI 1132/P/13, 24 h",0.125 µg/mL
same,MIC,"[2]; 24 h, strain 16 VCPI 1133/P/13, 24 h",16 µg/mL
same,MIC,"[2]; 24 h, strain 17 VCPI 105/P/14, 24 h",0.125 µg/mL
same,MIC,"[2]; 24 h, strain 18 VCPI 107/P/14, 24 h",0.06 µg/mL
same,MIC,"[2]; 24 h, strain 19 VCPI 510/P/14, 24 h",0.125 µg/mL
same,MIC,"[2]; 24 h, strain 20 VCPI 511/P/14, 24 h",0.125 µg/mL
same,MIC,"[2]; 24 h, strain 21 VCPI 512/P/14, 24 h",0.125 µg/mL
same,MIC,"[2]; 24 h, strain 22 VCPI 513/P/14, 24 h",0.125 µg/mL
same,MIC,"[2]; 24 h, strain 23 VCPI 514/P/14, 24 h",0.25 µg/mL
same,MIC,"[2]; 24 h, strain 24 VCPI 250/P/14, 24 h",0.125 µg/mL
same,MIC,"[2]; 24 h, strain 25 VCPI 265/P/14, 24 h",16 µg/mL
same,MIC,"[2]; 24 h, strain 26 VCPI 266/P/14, 24 h",0.125 µg/mL
same,MIC,"[2]; 24 h, strain 27 VCPI 462/P/14, 24 h",16 µg/mL
same,MIC,"[2]; 24 h, strain 28 VCPI 463/P/14, 24 h",0.125 µg/mL
same,MIC,"[2]; 24 h, strain 29 VCPI 467/P/14, 24 h",0.25 µg/mL
same,MIC,"[2]; 24 h, strain 31 VCPI 478/P/14, 24 h",0.5 µg/mL
same,MIC,"[2]; 24 h, strain 32 VCPI 518/P/14, 24 h",0.25 µg/mL
same,MIC,"[2]; 24 h, strain 33 VCPI 550/P/14, 24 h",0.25 µg/mL
same,MIC,"[2]; 24 h, strain 34 VCPI 714/P/14, 24 h",0.125 µg/mL
same,MIC,"[2]; 24 h, strain 35 VCPI 717/P/14, 24 h",0.125 µg/mL
same,MIC,"[2]; 24 h, strain 36 VCPI 1060/P/14, 24 h",0.25 µg/mL
same,MIC,"[2]; 24 h, strain 37 VCPI 74/P/15, 24 h",0.25 µg/mL
same,MIC,"[2]; 24 h, strain 38 VCPI 213/P/15, 24 h",0.25 µg/mL
same,MIC,[2]; 24 h,16 µg/mL
same,MIC,"[2]; 48 h, strain 1 VPCI 669/P/12, 48 h",0.25 µg/mL
same,MIC,"[2]; 48 h, strain 2 VCPI 671/P/12, 48 h",0.25 µg/mL
same,MIC,"[2]; 48 h, strain 3 VCPI 674/P/12, 48 h",0.125 µg/mL
same,MIC,"[2]; 48 h, strain 4 VCPI 683/P/12, 48 h",0.25 µg/mL
same,MIC,"[2]; 48 h, strain 5 VCPI 692/P/12, 48 h",0.25 µg/mL
same,MIC,"[2]; 48 h, strain 6 VCPI 712/P/12, 48 h",0.125 µg/mL
same,MIC,"[2]; 48 h, strain 7 VCPI 471/P/13, 48 h",0.25 µg/mL
same,MIC,"[2]; 48 h, strain 8 VCPI 475/P/13, 48 h",0.25 µg/mL
same,MIC,"[2]; 48 h, strain 9 VCPI 478/P/13, 48 h",0.125 µg/mL
same,MIC,"[2]; 48 h, strain 10 VCPI 479/P/13, 48 h",0.125 µg/mL
same,MIC,"[2]; 48 h, strain 11 VCPI 480/P/13, 48 h",0.125 µg/mL
same,MIC,"[2]; 48 h, strain 12 VCPI 482/P/13, 48 h",0.125 µg/mL
same,MIC,"[2]; 48 h, strain 13 VCPI 483/P/13, 48 h",0.125 µg/mL
same,MIC,"[2]; 48 h, strain 14 VCPI 1130/P/13, 48 h",0.125 µg/mL
same,MIC,"[2]; 48 h, strain 15 VCPI 1132/P/13, 48 h",0.125 µg/mL
same,MIC,"[2]; 48 h, strain 16 VCPI 1133/P/13, 48 h",> 16 µg/mL
same,MIC,"[2]; 48 h, strain 17 VCPI 105/P/14, 48 h",0.125 µg/mL
same,MIC,"[2]; 48 h, strain 18 VCPI 107/P/14, 48 h",0.06 µg/mL
same,MIC,"[2]; 48 h, strain 19 VCPI 510/P/14, 48 h",0.125 µg/mL
same,MIC,"[2]; 48 h, strain 20 VCPI 511/P/14, 48 h",0.125 µg/mL
same,MIC,"[2]; 48 h, strain 21 VCPI 512/P/14, 48 h",0.125 µg/mL
same,MIC,"[2]; 48 h, strain 22 VCPI 513/P/14, 48 h",0.25 µg/mL
same,MIC,"[2]; 48 h, strain 23 VCPI 514/P/14, 48 h",0.25 µg/mL
same,MIC,"[2]; 48 h, strain 24 VCPI 250/P/14, 48 h",0.125 µg/mL
same,MIC,"[2]; 48 h, strain 25 VCPI 265/P/14, 48 h",> 16 µg/mL
same,MIC,"[2]; 48 h, strain 26 VCPI 266/P/14, 48 h",0.125 µg/mL
same,MIC,"[2]; 48 h, strain 27 VCPI 462/P/14, 48 h",> 16 µg/mL
same,MIC,"[2]; 48 h, strain 28 VCPI 463/P/14, 48 h",0.125 µg/mL
same,MIC,"[2]; 48 h, strain 29 VCPI 467/P/14, 48 h",0.25 µg/mL
same,MIC,"[2]; 48 h, strain 31 VCPI 478/P/14, 48 h",0.5 µg/mL
same,MIC,"[2]; 48 h, strain 32 VCPI 518/P/14, 48 h",0.5 µg/mL
same,MIC,"[2]; 48 h, strain 33 VCPI 550/P/14, 48 h",0.5 µg/mL
same,MIC,"[2]; 48 h, strain 34 VCPI 714/P/14, 48 h",0.25 µg/mL
same,MIC,"[2]; 48 h, strain 35 VCPI 717/P/14, 48 h",0.125 µg/mL
same,MIC,"[2]; 48 h, strain 36 VCPI 1060/P/14, 48 h",0.25 µg/mL
same,MIC,"[2]; 48 h, strain 37 VCPI 74/P/15, 48 h",0.25 µg/mL
same,MIC,"[2]; 48 h, strain 38 VCPI 213/P/15, 48 h",0.25 µg/mL
same,MIC,[2]; 48 h,> 16 µg/mL
same,survival,[3],no survivors
